Read-outs that look alike come from different tables or passages of the source.
Tests used:
[1] = Fe^2+ chelation assay; assay type: biochemical
[2] = Ferric ions (Fe^3+) reducing antioxidant power by cyclic voltammetry
Experimental: The evaluated compounds’ stock solutions used were prepared at a concentration of 5 mM. To test their redox properties, dilutions of 0.5 mM and 2 mM were prepared in 0.1 M HClO4 electrolyte (pH = 1.2). Screen-printed electrodes (SPEs; Metrohm DropSens, Oviedo, Spain) (planar electrodes) with graphite and gold working electrodes were used. Cyclic voltammetry (CV) and differential pulse voltammetry (DPV) were the electrochemical methods applied. The experimental conditions for each test are mentioned near the corresponding data (Appendix A).
The antioxidant properties were evaluated in terms of their activity against some free radicals, and other compounds reported in the literature, relevant for this purpose, such as: • ferric ions (Fe^3+)—used to test the reduction of the antioxidant character of the compounds; • DPPH˙ free radical– used to test the scavenging effect of the compounds on this radical; • hydrogen peroxide (H2O2)—used to test the scavenging effect of the synthesized molecules on this compound; • 2,2,6,6-tetramethylpiperidinyl-1-oxy (TEMPO)—used to test the scavenging effect of the synthesized molecules on this compound.
This method is based on the evaluation of the influence of the compound measured by the direct reduction of Fe[(CN)6]^3− to […]. This assay is based on the reduction of Fe^3+ to Fe^2+ due to the action of antioxidants. Based on the electrochemical behavior of the studied compounds, the interaction of Fe^3+ was followed by cyclic voltammetry (CV) via the possible changes of redox peaks characteristic for Fe^3+/Fe^2+ transition after the interaction with antioxidants (if any).
From the voltammogram of potassium ferricyanide it can be observed that the one-electron transfer process Fe^3+/Fe^2+ occurs at 0.247 V/ 0.150 V in acidic media (red) (Figure A1; Table A1).
Each compound presents its characteristic peaks (blue line in each figure).

[3] = DPPH˙ radical scavenging assay; assay type: biochemical
[4] = tested on: HaCaT cells; test: Cytotoxicity determination, MTT method; assay type: cell-based; settings: Homo sapiens, HaCaT cells, MTT, 24 h
How it was run: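 Normal human HaCaT keratinocytes seeded at 12×10^3 cells/well and attached 24 h at 37 °C, 5% CO2 before treatment. After 24 h, MTT at 5 μg/mL/well applied for 2 h, formazan dissolved in isopropanol and read at 550 and 630 nm.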

[5] = TEMPO scavenging by differential pulse voltammetry; settings: 2 mM TEMPO, one hour incubation, 0.1 M HClO4, DPV
How it was run: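 Scavenging of the stable nitroxide radical TEMPO by the compounds, measured as antioxidant activity by differential pulse voltammetry.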

[6] = Cu^2+ chelation assay; assay type: biochemical

## Br.NC(=O)c1cc(-c2csc(N/N=C/c3ccc(O)cc3O)n2)ccc1O [Compound 7b, (E)-1-(4-(3-carbamoyl-4-hydroxyphenyl)thiazol-2-yl)-2-(2,4-dihydroxybenzylidene) hydrazin-1-ium bromide]
[1]; 50 µg/mL
  Chelation Capacity (%), ferrous ions: 0.07%
[1]; 100 µg/mL
  Chelation Capacity (%), ferrous ions: 3.44%
[1]; 150 µg/mL
  Chelation Capacity (%), ferrous ions: 9.13%
[1]; 200 µg/mL
  Chelation Capacity (%), ferrous ions: 16.28%
[2]; compound 0.5 mM + Fe^3+/Fe^2+ (0.5 mM potassium ferricyanide), 1st Eox column
  Eox (V): 0.205 V
[2]; compound 0.5 mM + Fe^3+/Fe^2+ (0.5 mM potassium ferricyanide), 1st Iox column
  Iox (μA): 1.39 μA
[2]; compound + Fe^3+/Fe^2+, 1st Ered
  Ered (V): 0.161 V
[2]; compound + Fe^3+/Fe^2+, 1st Ired
  Ired (μA): −6.8 μA
[2]; compound + Fe^3+/Fe^2+, 2nd Eox
  Eox (V): 0.305 V
[2]; compound + Fe^3+/Fe^2+, 2nd Iox column
  Iox (μA): 6.08 μA
[2]; compound + Fe^3+/Fe^2+, 5th Eox
  Eox (V): 0.926 V
[2]; compound + Fe^3+/Fe^2+, 5th Iox column
  Iox (μA): 6.34 μA
[2]; compound alone 0.5 mM in 0.1 M HClO4, 2nd Eox
  Eox (V): 0.347 V
[2]; compound alone 0.5 mM in 0.1 M HClO4, 2nd Iox column
  Iox (μA): 2.07 μA
[2]; compound alone 0.5 mM in 0.1 M HClO4, 5th Eox
  Eox (V): 1.065 V
[2]; compound alone 0.5 mM in 0.1 M HClO4, 5th Iox column
  Iox (μA): 2.64 μA
[3]; 1 µg/mL
  % of DPPH˙ Scavenged: 24.01%
[3]; 1.5 µg/mL
  % of DPPH˙ Scavenged: 26.00%
[3]; 2 µg/mL
  % of DPPH˙ Scavenged: 30.41%
[3]; 3 µg/mL
  % of DPPH˙ Scavenged: 35.81%
[3]; 5 µg/mL
  % of DPPH˙ Scavenged: 51.80%
[3]; DPPH˙ scavenging
  IC50: 4.84 µg/mL
[4]; read-out: IC50
  IC50: 93.9 µM
[4]; read-out: IC50 (µg/mL)
  IC50: 42.4 µg/mL
[5]
  oxidation signal for TEMPO after incubation with the compound: does not decrease
[6]; 3.36 µg/mL
  Chelation Capacity (%), cupric ions: 7.23%
[6]; 6.72 µg/mL
  Chelation Capacity (%), cupric ions: 11.41%
[6]; 10.08 µg/mL
  Chelation Capacity (%), cupric ions: 14.46%
[6]; 13.44 µg/mL
  Chelation Capacity (%), cupric ions: 19.40%
[6]; 16.80 µg/mL
  Chelation Capacity (%), cupric ions: 22.72%

Reference: article PMC8615111, “Phenolic Thiazoles with Antioxidant and Antiradical Activity. Synthesis, In Vitro Evaluation, Toxicity, Electrochemical Behavior, Quantum Studies and Antimicrobial Screening” (Antioxidants, 2021)
